Values quoted from earlier work in patent US10266741B2, “Apparatus and method for addition of ADH enzyme inhibitors to existing engine cooling systems” (priority 2016, dated 2019).

Tested on: humans
Details: ingestion, Federal Register Vol. 63, No. 27, Feb. 10, 1998

OCCO [EG, ethylene glycol]
known toxin to humans at relatively low levels (reported as low as): 1,570 mg/kg
